Test results as given in patent publication US11267861B2, “Peptide-oligourea foldamer compounds and methods of their use” (UREKA SARL, priority 2016, dated 2022).
Converted amounts (≈) assume the structure as drawn. Numbered stars: 1 amine (or outer) side, 2 acyl side, 3 side chain; on linkers, the order of the positions; unused ones are H or OH. Bridge positions count the residues as written; N and C are the ends. Square brackets hold non-standard residues; d marks the D form. Peptide text beside a SMILES is read from it. I, II: the chains in the order shown. X4 = NCCCC[C@@H](CNC(=O)[*:1])N[*:2]; Nle = CCCC[C@H](N)C(=O)O

Legend:
[1] = target: T1, human glucagon receptor (Homo sapiens, UniProt P47871); experiment: Glucagon functional assay: agonist activity by cAMP production (HTRF) in transfected CHO cells; format: cell-based; details: cAMP production, transfected CHO cells, 10 minutes at 37° C.
T1 construct: expressed in transfected cells; host or cells: CHO cells
Protocol: Functional Assay to Examine Bioactivity of Glucagon Receptor Agonists. Evaluation of the agonist activity of compounds at the human glucagon receptor expressed in transfected CHO cells was examined by measuring their effects on cAMP production using the HTRF detection method. […] For stimulated control measurement, separate assay wells contain 100 nM glucagon were utilized.
Following incubation, the cells were lysed and the fluorescence acceptor (D2-labeled cAMP) and fluorescence donor (anti-cAMP antibody labeled with europium cryptate) were added. […] The results are expressed as a percent of the control response to 100 nM glucagon. The standard reference agonist is glucagon, which was tested in each experiment at several concentrations to generate a concentration-response curve from which its EC50 value was calculated.
HTRF (Homogeneous Time-Resolved Fluorescence) principle. The HTRF technology is based on time resolved fluorescence energy transfer (TR-FRET), which occurs between long-lived fluorophore Europium or Terbium Cryptates, and EuK or Tb respectively, as a donor and the allophycocyanin XL665, d2 or Red as acceptor. Many compounds and proteins present in biological fluids or serum are naturally fluorescent, and the use of conventional, prompt fluorescence leads to serious limitations in assay sensitivity. The use of long-lived fluorophore combined with time-resolved detection (a delay between excitation and emission detection) minimizes prompt fluorescence interference.

[2] = Solubility of glucagon analogs (UV absorbance); format: physicochemical; details: for solubility: 0.01M HCl solution adjusted to pH 7 with Na2HPO4, pH 7, pH adjusted to 7 with Na2HPO4, incubated overnight at 4° C.; for ratio (solubility relative to reference compound 16): relative to compound 16;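 on all read-outs here: peptide stock at 3 mg/ml in 0.01 M HCl, absorbance at 280 nm read before neutralization and again on the diluted supernatant after centrifugation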
Protocol: A solution of 3 mg/ml of glucagon (or analog) was prepared in a 0.01M HCl solution. Then 0.1 ml of the stock solution was diluted to 1 ml with HCl (0.01M) and the UV absorbance measured (to 280 nm) with nanodrop UV spectrometer. The pH of the remaining stock solution was adjusted to 7 using Na2HPO4, and the solution was incubated overnight at 4° C. The solution was then centrifuged three times (5 minutes, 4000 rotations per minute), 0.1 ml of the supernatant was removed and diluted to 1 ml with HCl solution (0.01M).
The final UV absorbance was measured.

T1 sequence (P47871 26-477): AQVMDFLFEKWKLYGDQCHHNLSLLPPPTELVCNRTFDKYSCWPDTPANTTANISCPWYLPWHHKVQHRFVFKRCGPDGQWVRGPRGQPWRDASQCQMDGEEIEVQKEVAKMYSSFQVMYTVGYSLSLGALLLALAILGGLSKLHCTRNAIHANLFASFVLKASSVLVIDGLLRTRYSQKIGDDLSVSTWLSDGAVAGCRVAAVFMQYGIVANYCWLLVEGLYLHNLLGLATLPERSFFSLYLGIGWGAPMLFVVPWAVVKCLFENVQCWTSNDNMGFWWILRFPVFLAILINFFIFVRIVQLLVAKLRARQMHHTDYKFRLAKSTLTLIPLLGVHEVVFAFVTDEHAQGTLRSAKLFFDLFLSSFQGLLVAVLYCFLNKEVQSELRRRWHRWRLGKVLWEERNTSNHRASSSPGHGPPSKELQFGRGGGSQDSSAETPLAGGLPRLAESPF

Structure (SMILES): CCCC[C@H](NC(=O)[C@H](CC(C)C)NC(=O)NC[C@H](C)NC(=O)[C@H](CCC(N)=O)NC(=O)[C@@H](NC(=O)[C@H](Cc1ccccc1)NC(=O)[C@H](CC(=O)O)NC(=O)[C@H](CCC(N)=O)NC(=O)[C@H](C)NC(=O)[C@H](CCCNC(=N)N)NC(=O)[C@H](CCCNC(=N)N)NC(=O)[C@H](CO)NC(=O)[C@H](CC(=O)O)NC(=O)[C@H](CC(C)C)NC(=O)[C@H](Cc1ccc(O)cc1)NC(=O)[C@H](CCCCN)NC(=O)[C@H](CO)NC(=O)[C@H](Cc1ccc(O)cc1)NC(=O)[C@H](CC(=O)O)NC(=O)[C@H](CO)NC(=O)[C@@H](NC(=O)[C@H](Cc1ccccc1)NC(=O)[C@@H](NC(=O)CNC(=O)[C@H](CCC(N)=O)NC(=O)[C@H](CO)NC(=O)[C@@H](N)Cc1c[nH]cn1)[C@@H](C)O)[C@@H](C)O)C(C)C)C(=O)N[C@@H](CC(N)=O)C(=O)N[C@H](C(=O)O)[C@@H](C)O [Compound 57]
- EC50 [1]: 22 nM
- solubility [2]: 970 µg/mL (≈ 287 µM)
- ratio (solubility relative to reference compound 16) [2]: 3.9

Structure (SMILES): CCCC[C@H](NC(=O)NC[C@H](C)NC(=O)[C@H](Cc1c[nH]c2ccccc12)NC(=O)[C@H](CCC(N)=O)NC(=O)[C@@H](NC(=O)[C@H](Cc1ccccc1)NC(=O)[C@H](CC(=O)O)NC(=O)[C@H](CCC(N)=O)NC(=O)[C@H](C)NC(=O)[C@H](CCCNC(=N)N)NC(=O)[C@H](CCCNC(=N)N)NC(=O)[C@H](CO)NC(=O)[C@H](CC(=O)O)NC(=O)[C@H](CC(C)C)NC(=O)[C@H](Cc1ccc(O)cc1)NC(=O)[C@H](CCCCN)NC(=O)[C@H](CO)NC(=O)[C@H](Cc1ccc(O)cc1)NC(=O)[C@H](CC(=O)O)NC(=O)[C@H](CO)NC(=O)[C@@H](NC(=O)[C@H](Cc1ccccc1)NC(=O)[C@@H](NC(=O)CNC(=O)[C@H](CCC(N)=O)NC(=O)[C@H](CO)NC(=O)[C@@H](N)Cc1c[nH]cn1)[C@@H](C)O)[C@@H](C)O)C(C)C)C(=O)N[C@@H](CC(N)=O)C(=O)N[C@H](C(=O)O)[C@@H](C)O [Compound 58]
- EC50 [1]: 35 nM
- solubility [2]: 1510 µg/mL (≈ 437 µM)
- ratio (solubility relative to reference compound 16) [2]: 6.0

Structure (SMILES): CCCC[C@H](NC(=O)[C@H](CC(C)C)NC(=O)[C@H](Cc1c[nH]c2ccccc12)NC(=O)[C@H](CCC(N)=O)NC(=O)[C@@H](NC(=O)[C@H](Cc1ccccc1)NC(=O)[C@H](CC(=O)O)NC(=O)[C@H](CCC(N)=O)NC(=O)[C@H](C)NC(=O)[C@H](CCCNC(=N)N)NC(=O)[C@H](CCCNC(=N)N)NC(=O)[C@H](CO)NC(=O)[C@H](CC(=O)O)NC(=O)[C@H](CC(C)C)NC(=O)[C@H](Cc1ccc(O)cc1)NC(=O)NC[C@H](CCCCN)NC(=O)[C@H](CO)NC(=O)[C@H](Cc1ccc(O)cc1)NC(=O)[C@H](CC(=O)O)NC(=O)[C@H](CO)NC(=O)[C@@H](NC(=O)[C@H](Cc1ccccc1)NC(=O)[C@@H](NC(=O)CNC(=O)[C@H](CCC(N)=O)NC(=O)[C@H](CO)NC(=O)[C@@H](N)Cc1c[nH]cn1)[C@@H](C)O)[C@@H](C)O)C(C)C)C(=O)N[C@@H](CC(N)=O)C(=O)N[C@H](C(=O)O)[C@@H](C)O [Compound 59] (I: YLDSRRAQDFVQWL[Nle]NT-OH / II: H-HSQGTFTSDYS; linker I:N-II:C via X4; C-terminus assumed)
- EC50 [1]: 32 nM
- solubility [2]: 720 µg/mL (≈ 206 µM)
- ratio (solubility relative to reference compound 16) [2]: 2.9

Structure (SMILES): CCCC[C@H](NC(=O)[C@H](CC(C)C)NC(=O)[C@H](Cc1c[nH]c2ccccc12)NC(=O)[C@H](CCC(N)=O)NC(=O)[C@@H](NC(=O)[C@H](Cc1ccccc1)NC(=O)[C@H](CC(=O)O)NC(=O)NC[C@H](CCC(N)=O)NC(=O)[C@H](C)NC(=O)[C@H](CCCNC(=N)N)NC(=O)[C@H](CCCNC(=N)N)NC(=O)[C@H](CO)NC(=O)[C@H](CC(=O)O)NC(=O)[C@H](CC(C)C)NC(=O)[C@H](Cc1ccc(O)cc1)NC(=O)[C@H](CCCCN)NC(=O)[C@H](CO)NC(=O)[C@H](Cc1ccc(O)cc1)NC(=O)[C@H](CC(=O)O)NC(=O)[C@H](CO)NC(=O)[C@@H](NC(=O)[C@H](Cc1ccccc1)NC(=O)[C@@H](NC(=O)CNC(=O)[C@H](CCC(N)=O)NC(=O)[C@H](CO)NC(=O)[C@@H](N)Cc1c[nH]cn1)[C@@H](C)O)[C@@H](C)O)C(C)C)C(=O)N[C@@H](CC(N)=O)C(=O)N[C@H](C(=O)O)[C@@H](C)O [Compound 60]
- EC50 [1]: 36 nM
- solubility [2]: 830 µg/mL (≈ 238 µM)
- ratio (solubility relative to reference compound 16) [2]: 3.3

Structure (SMILES): CCCC[C@H](NC(=O)[C@H](CC(C)C)NC(=O)[C@H](Cc1c[nH]c2ccccc12)NC(=O)[C@H](CCC(N)=O)NC(=O)[C@@H](NC(=O)[C@H](Cc1ccccc1)NC(=O)NC[C@H](CC(=O)O)NC(=O)[C@H](CCC(N)=O)NC(=O)[C@H](C)NC(=O)[C@H](CCCNC(=N)N)NC(=O)[C@H](CCCNC(=N)N)NC(=O)[C@H](CO)NC(=O)[C@H](CC(=O)O)NC(=O)[C@H](CC(C)C)NC(=O)[C@H](Cc1ccc(O)cc1)NC(=O)[C@H](CCCCN)NC(=O)[C@H](CO)NC(=O)[C@H](Cc1ccc(O)cc1)NC(=O)[C@H](CC(=O)O)NC(=O)[C@H](CO)NC(=O)[C@@H](NC(=O)[C@H](Cc1ccccc1)NC(=O)[C@@H](NC(=O)CNC(=O)[C@H](CCC(N)=O)NC(=O)[C@H](CO)NC(=O)[C@@H](N)Cc1c[nH]cn1)[C@@H](C)O)[C@@H](C)O)C(C)C)C(=O)N[C@@H](CC(N)=O)C(=O)N[C@H](C(=O)O)[C@@H](C)O [Compound 61]
- EC50 [1]: 0.1 nM
- solubility [2]: 740 µg/mL (≈ 212 µM)
- ratio (solubility relative to reference compound 16) [2]: 2.9

Structure (SMILES): CCCC[C@H](NC(=O)[C@H](CC(C)C)NC(=O)[C@H](Cc1c[nH]c2ccccc12)NC(=O)[C@H](CCC(N)=O)NC(=O)[C@@H](NC(=O)NC[C@H](Cc1ccccc1)NC(=O)[C@H](CC(=O)O)NC(=O)[C@H](CCC(N)=O)NC(=O)[C@H](C)NC(=O)[C@H](CCCNC(=N)N)NC(=O)[C@H](CCCNC(=N)N)NC(=O)[C@H](CO)NC(=O)[C@H](CC(=O)O)NC(=O)[C@H](CC(C)C)NC(=O)[C@H](Cc1ccc(O)cc1)NC(=O)[C@H](CCCCN)NC(=O)[C@H](CO)NC(=O)[C@H](Cc1ccc(O)cc1)NC(=O)[C@H](CC(=O)O)NC(=O)[C@H](CO)NC(=O)[C@@H](NC(=O)[C@H](Cc1ccccc1)NC(=O)[C@@H](NC(=O)CNC(=O)[C@H](CCC(N)=O)NC(=O)[C@H](CO)NC(=O)[C@@H](N)Cc1c[nH]cn1)[C@@H](C)O)[C@@H](C)O)C(C)C)C(=O)N[C@@H](CC(N)=O)C(=O)N[C@H](C(=O)O)[C@@H](C)O [Compound 62]
- EC50 [1]: 53 nM
- solubility [2]: 680 µg/mL (≈ 195 µM)
- ratio (solubility relative to reference compound 16) [2]: 2.7

Structure (SMILES): CCCC[C@H](NC(=O)[C@H](CC(C)C)NC(=O)[C@H](Cc1c[nH]c2ccccc12)NC(=O)[C@H](CCC(N)=O)NC(=O)NC[C@@H](NC(=O)[C@H](Cc1ccccc1)NC(=O)[C@H](CC(=O)O)NC(=O)[C@H](CCC(N)=O)NC(=O)[C@H](C)NC(=O)[C@H](CCCNC(=N)N)NC(=O)[C@H](CCCNC(=N)N)NC(=O)[C@H](CO)NC(=O)[C@H](CC(=O)O)NC(=O)[C@H](CC(C)C)NC(=O)[C@H](Cc1ccc(O)cc1)NC(=O)[C@H](CCCCN)NC(=O)[C@H](CO)NC(=O)[C@H](Cc1ccc(O)cc1)NC(=O)[C@H](CC(=O)O)NC(=O)[C@H](CO)NC(=O)[C@@H](NC(=O)[C@H](Cc1ccccc1)NC(=O)[C@@H](NC(=O)CNC(=O)[C@H](CCC(N)=O)NC(=O)[C@H](CO)NC(=O)[C@@H](N)Cc1c[nH]cn1)[C@@H](C)O)[C@@H](C)O)C(C)C)C(=O)N[C@@H](CC(N)=O)C(=O)N[C@H](C(=O)O)[C@@H](C)O [Compound 63]
- EC50 [1]: 30 nM
- solubility [2]: 1280 µg/mL (≈ 366 µM)
- ratio (solubility relative to reference compound 16) [2]: 5.1

Structure (SMILES): CCCC[C@H](NC(=O)[C@H](CC(C)C)NC(=O)[C@H](Cc1c[nH]c2ccccc12)NC(=O)NC[C@H](CCC(N)=O)NC(=O)[C@@H](NC(=O)[C@H](Cc1ccccc1)NC(=O)[C@H](CC(=O)O)NC(=O)[C@H](CCC(N)=O)NC(=O)[C@H](C)NC(=O)[C@H](CCCNC(=N)N)NC(=O)[C@H](CCCNC(=N)N)NC(=O)[C@H](CO)NC(=O)[C@H](CC(=O)O)NC(=O)[C@H](CC(C)C)NC(=O)[C@H](Cc1ccc(O)cc1)NC(=O)[C@H](CCCCN)NC(=O)[C@H](CO)NC(=O)[C@H](Cc1ccc(O)cc1)NC(=O)[C@H](CC(=O)O)NC(=O)[C@H](CO)NC(=O)[C@@H](NC(=O)[C@H](Cc1ccccc1)NC(=O)[C@@H](NC(=O)CNC(=O)[C@H](CCC(N)=O)NC(=O)[C@H](CO)NC(=O)[C@@H](N)Cc1c[nH]cn1)[C@@H](C)O)[C@@H](C)O)C(C)C)C(=O)N[C@@H](CC(N)=O)C(=O)N[C@H](C(=O)O)[C@@H](C)O [Compound 64]
- EC50 [1]: 0.16 nM
- solubility [2]: 940 µg/mL (≈ 269 µM)
- ratio (solubility relative to reference compound 16) [2]: 3.7

Structure (SMILES): CCCC[C@H](NC(=O)[C@H](CC(C)C)NC(=O)NC[C@H](Cc1c[nH]c2ccccc12)NC(=O)[C@H](CCC(N)=O)NC(=O)[C@@H](NC(=O)[C@H](Cc1ccccc1)NC(=O)[C@H](CC(=O)O)NC(=O)[C@H](CCC(N)=O)NC(=O)[C@H](C)NC(=O)[C@H](CCCNC(=N)N)NC(=O)[C@H](CCCNC(=N)N)NC(=O)[C@H](CO)NC(=O)[C@H](CC(=O)O)NC(=O)[C@H](CC(C)C)NC(=O)[C@H](Cc1ccc(O)cc1)NC(=O)[C@H](CCCCN)NC(=O)[C@H](CO)NC(=O)[C@H](Cc1ccc(O)cc1)NC(=O)[C@H](CC(=O)O)NC(=O)[C@H](CO)NC(=O)[C@@H](NC(=O)[C@H](Cc1ccccc1)NC(=O)[C@@H](NC(=O)CNC(=O)[C@H](CCC(N)=O)NC(=O)[C@H](CO)NC(=O)[C@@H](N)Cc1c[nH]cn1)[C@@H](C)O)[C@@H](C)O)C(C)C)C(=O)N[C@@H](CC(N)=O)C(=O)N[C@H](C(=O)O)[C@@H](C)O [Compound 65]
- EC50 [1]: 1.5 nM
- solubility [2]: 850 µg/mL (≈ 243 µM)
- ratio (solubility relative to reference compound 16) [2]: 3.4
